Source: publication PMC8815882, “Screening the pandemic response box identified benzimidazole carbamates, Olorofim and ravuconazole as promising drug candidates for the treatment of eumycetoma” (PLoS Neglected Tropical Diseases, 2022)
Converted amounts (≈) assume the structure as drawn. Like-named read-outs stand apart in the source and are kept apart here.

Assays:
[1] = system: M. mycetomatis MM55; experiment: IC50 determination, 2-fold dilution series 16 to 0.03125 μM; type: cell-based, Madurella mycetomatis; settings: for IC50 / IC90: Madurella mycetomatis
[2] = system: ten different M. mycetomatis isolates; set-up: method as in PMID 24945848, PMID 22964246, PMID 31904836; settings: asterisk: determined in previous works ref 19-21; cited from earlier work
[3] = system: M. mycetomatis genome strain MM55; experiment: CLSI M38-A2 based in vitro susceptibility screening (XTT or resazurin), growth at fixed concentration; type: cell-based, Madurella mycetomatis; settings: Madurella mycetomatis
[4] = system: M. mycetomatis; experiment: Drug static or cidal; type: cell-based, Madurella mycetomatis
Source text: Supplement pntd.0010159.s001.xlsx, sheet "Pandemic Box Master sheet" | column: Drug static or cidal

[5] = system: F. senegalensis strain CBS132257; experiment: CLSI M38-A2 based in vitro susceptibility screening at 25 μM; type: cell-based, Falciformispora senegalensis; settings: selected if >75% (resazurin) or >80% (XTT) fungal growth inhibited
[6] = system: M. mycetomatis isolate MM55; experiment: M. mycetomatis grain infection model in G. mellonella larvae, survival; type: in vivo, Galleria mellonella; set-up: In vivo efficacy, Larvae survival %: concentration or dose not given beside the values
[7] = system: Me. romeroi strain CBS128765; experiment: CLSI M38-A2 based in vitro susceptibility screening at 25 μM; type: cell-based, Medicopsis romeroi; settings: selected if >75% (resazurin) or >80% (XTT) fungal growth inhibited
[8] = MM55, Table 2, M. mycetomatis MM55, read-out: IC50
[9] = MM55, replicate 1, read-out: IC50 1
[10] = MM55, replicate 1, read-out: IC90 1
[11] = MM55, replicate 2, read-out: IC50 2
[12] = MM55, replicate 2, read-out: IC90 2
[13] = MM55, replicate 3, read-out: IC50 3
[14] = MM55, replicate 3, read-out: IC90 3
[15] = mean, read-out: Percentage survival at 25um, 25 uM mean
[16] = replicate A, read-out: Percentage survival at 25um, 25 um A
[17] = replicate B, read-out: Percentage survival at 25um, 25 uM B
[18] = replicate C, read-out: Percentage survival at 25um, 25 uM C
[19] = mean, read-out: Percentage survival at 100um, 100 uM mean
[20] = replicate (first column), read-out: Percentage survival at 100um, 100 uM A
[21] = replicate (second column), read-out: Percentage survival at 100um, 100 uM A
[22] = replicate (third column), read-out: Percentage survival at 100um, 100 uM A
[23] = MM55, mean, read-out: IC50 mean

IC50 [1, 8] [nM] | IC50 [1, 9] [nM] | IC90 [1, 10] [nM] | IC50 [1, 11] [nM] | IC90 [1, 12] [nM] | IC50 [1, 13] [nM] | IC90 [1, 14] [nM] | IC50 [1, 23] [nM] | Compound | Drug static or cidal [1] | MIC50 [2] [µM] | MIC range [2] [µM] | activity at 25 µM [3, 15] [%] | activity at 25 µM [3, 16] [%] | activity at 25 µM [3, 17] [%] | activity at 25 µM [3, 18] [%] | activity at 100 µM [3, 19] [%] | activity at 100 µM [3, 20] [%] | activity at 100 µM [3, 21] [%] | activity at 100 µM [3, 22] [%] | further results
70 | < 98 | 180 | < 98 | < 98 | 380 | 1050 | – | CC(=O)N1CCN(c2ccc(OCC3COC(Cn4ccnc4)(c4ccc(Cl)cc4Cl)O3)cc2)CC1 (stereo not drawn) [MMV637533, Ketoconazole, reference compound] | Cidal | 0.13 (≈ 0.0691 µg/mL) | 0.06 to 1.9 | -0.0796 | 1.08 | -3.63 | 2.31 | 5.46 | 1.43 | 7.48 | 7.47 | –
– | – | – | – | – | – | – | – | Oc1cccc(C(Nc2nccs2)c2ccc3cccnc3c2O)c1 (stereo not drawn) [MMV642550] | – | – | – | – | -5.33 | 6.92 | 2.03 | – | – | – | – | IC50 ([1]; MM55, mean of replicates, read-out: IC50 mean): > 25000 nM; IC90 ([1]; MM55, mean of replicates, read-out: IC90 mean): > 25000 nM; IC50 ([1]; MM55, replicate 1, read-out: IC50 1 um): > 25000 nM; IC90 ([1]; MM55, replicate 1, read-out: IC90 1 um): > 25000 nM; IC50 ([1]; MM55, replicate 2, read-out: IC50 2 um): > 25000 nM; IC90 ([1]; MM55, replicate 2, read-out: IC90 2 um): > 25000 nM; IC50 ([1]; MM55, replicate 3, read-out: IC50 3 um): > 25000 nM; IC90 ([1]; MM55, replicate 3, read-out: IC90 3 um): > 25000 nM; Drug static or cidal [4]: Cidal; activity at 25 µM ([3]; mean of three replicates, read-out: Percentage survival at 25um, 25 uM mean): 1.21%; activity at 100 µM ([3]; first replicate column, read-out: Percentage survival at 100um, 100 uM A): 4.63%; activity at 100 µM ([3]; mean of three replicates, read-out: Percentage survival at 100um, 100 uM mean): 8.03%; activity at 100 µM ([3]; second replicate column, read-out: Percentage survival at 100um, 100 uM A): 8.66%; activity at 100 µM ([3]; third replicate column, read-out: Percentage survival at 100um, 100 uM A): 10.8%
10 | < 98 | < 98 | 1040 | 4000 | < 98 | 2750 | < 98 | C[C@@H](c1nc(-c2ccc(C#N)cc2)cs1)[C@](O)(Cn1cncn1)c1ccc(F)cc1F [MMV1634362, Ravuconazole] | Cidal | 0.01 (≈ 0.00437 µg/mL) | 0.004 to 0.06 | -1.1 | -3.16 | -3.36 | 3.22 | 4.1 | -3.18 | 5.51 | 9.97 | Inhibits growth of Falciformispora senegalensis at 25 μM [5]: neither F. senegalensis nor Me. romeroi growth were inhibited; Larvae survival rate on day ten ([6]; 20 μM per larvae at 4, 28, 52 h after infection, day ten): 26.7%; Effect on larvae survival Day 4 (words) ([6]; 20 μM per larvae, vs infected control, day four): prolonged larvae survival; Effect on larvae survival Day 10 (words) ([6]; 20 μM per larvae, vs infected control, day ten): able to prolong larvae survival; In vivo efficacy, Enhanced survival compared to control? ([6]; in vivo): yes *; In vivo efficacy, Larvae survival % ([6]; in vivo): 26.7%; Inhibits growth of Medicopsis romeroi at 25 μM [7]: neither F. senegalensis nor Me. romeroi growth were inhibited
40 | 350 | 680 | 750 | 1300 | 790 | 1260 | 630 | CNCC(=O)OCc1cccnc1N(C)C(=O)OC(C)[n+]1cnn(C[C@](O)(c2cc(F)ccc2F)[C@@H](C)c2nc(-c3ccc(C#N)cc3)cs2)c1 (stereo partly drawn) [MMV1634494, Isavuconazonium, reference compound] | Cidal | 0.04 | <0.02 to 0.17 | -2.78 | -3.3 | -6.46 | 1.41 | 7.96 | 2.09 | 14.1 | 7.75 | IC90 ([1]; MM55, read-out: IC90 mean): 1080 nM
